Assays:
[1] = target: Recombinant Human Ketohexokinase (KHK) (Homo sapiens (Human), UniProt P50053); assay: Ketohexokinase assay (KHK assay), ADP-Glo; type: biochemical
Protocol: • 1. EnVision multilabel reader, Perkin Elmer; • 2. OptiPlate 384-well microplate, Perkin Elmer, Cat. No. 6007290; • 3. Recombinant Human Ketohexokinase (KHK), R&D Cat. No.: 8177-HK-020, Lot No.: DDFK0117092; • 4. Fructose (D(−)-Fructose), SCR Cat. No.: 36003034; and • 5. ADP-Glo kinase assay kit, Promega_Cat. No.: V9101.
1. preparation of Dilution Buffer containing 50 mM hydroxyethylpiperazine […] (Hepes), 140 mM KCl, 3.5 mM MgCl2, and 0.01% bovine serum albumin (BSA), pH 7.4.
2. A working solution of ketohexokinase at 2.5 times concentration was prepared with Dilution Buffer, with 50 nM ketohexokinase and 12.5 mM fructose.
3. A working solution of adenosine triphosphate (ATP) at 2.5 times concentration was prepared with Dilution Buffer, with a concentration of 250 μM.
4. Each compound was diluted starting at a concentration of 500 μM, 3-fold diluted for 9 concentration points. The final concentration of the compound in the reaction system started from 10 μM and the final concentration of dimethyl sulfoxide (DMSO) was 2%.
5. A 96-well plate was prepared as a reaction plate, and was incubated at room temperature for 5 min after adding 6 μL ketohexokinase working solution at 2.5 times concentration to each well and further adding 3 μL compound working solution to each well.
6. The first well of each row was a positive control for a compound, i.e. the same volume of the buffer was added to replace the compound and ketohexokinase. The last well was a negative control for the compound, i.e. the same volume of Dilution Buffer was added instead of the compound.
7. 6 μL ATP working solution was added to each well in a 96-well reaction plate to initiate the kinase reaction. The kinase reaction was incubated in a constant temperature heater at 28° C. for 1 h.
1. A384 plate was prepared as a detection plate, and firstly 5 μL ADP-Glo reagent was added.
2. 5 μL kinase reaction mixture from the reaction plate was added to each well and incubated in a constant temperature heater at 28° C. for 30 min.
3. 10 μL kinase detection reagent was added to each well and incubated in a constant temperature heater at 28° C. for 30 min.
4. The detection plate was placed in an EnVision multilabel reader to read the chemiluminescent signal.

[2] = test system: fructose metabolism in mice; assay: Acute fructose feeding experiment in mice; type: in vivo; conditions: compound 30 mpk, oral fructose 1 g/kg
Protocol: The effect of test compounds on the fructose content in mice with high fructose intake was investigated.
All animals were acclimated for one week in an animal house, fed with normal chow and fasted for 16 hours before being given fructose.
1) The experiment began at −0.5 hr. A control group was given a certain volume of vehicle (a certain proportion of methylcellulose and Tween 80 in water), and an experimental group was given a certain dose of a solution of the compound (the administered volume was consistent with the vehicle).
2) 0.5 hour later and before administration of a fructose solution, a blood sample was collected at 0 hr, followed by oral administration of 1 g/kg of an aqueous fructose solution.
3) After the administration of fructose, blood samples were collected from saphenous vein of mice at 0.25, 0.5, 1, 2, 3 and 8 hr, and fructose concentration was analyzed by LC-MS/MS.

Chain of Recombinant Human Ketohexokinase (KHK) (P50053 whole entry): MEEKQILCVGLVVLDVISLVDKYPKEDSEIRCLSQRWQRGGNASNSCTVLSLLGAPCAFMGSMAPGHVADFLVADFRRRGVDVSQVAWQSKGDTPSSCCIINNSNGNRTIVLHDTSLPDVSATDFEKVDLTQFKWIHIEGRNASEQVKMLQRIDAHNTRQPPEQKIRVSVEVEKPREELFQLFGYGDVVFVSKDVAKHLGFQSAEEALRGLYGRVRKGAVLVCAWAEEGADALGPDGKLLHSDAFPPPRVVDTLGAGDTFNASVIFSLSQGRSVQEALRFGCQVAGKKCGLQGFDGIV

Compound	IC50 [1]	AUC of integral fructose concentration for dosed group [2]	AUC of integral fructose concentration of dosed group/AUC of Integral fructose concentration of control group [2]
C[C@H]1CCN1c1nc(N2C[C@@H]3[C@@H](CC(=O)O)[C@@H]3C2)c2cccc(F)c2n1 [WX024]	61 nM	1858 nM·h	13.4
C[C@H]1CCN1c1nc(N2CC3(C[C@@H]3C(=O)O)C2)c2cccc(F)c2n1 [WX041]	52 nM	1704 nM·h	6.5
